Source: the supplement of paper PMC10307832

compound: COc1cc([C@@H]2c3cc4c(cc3[C@@H](O[C@@H]3O[C@@H]5CO[C@@H](C)O[C@H]5[C@H](O)[C@H]3O)[C@H]3COC(=O)[C@H]23)OCO4)cc(OC)c1O [Etoposide]; assay: relative viability (nuclei count vs DMSO), 5 days (fraction); higher = more cells survive; conditions: 0.03162 µM
Outline: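 Viability was defined as treated-well nuclei divided by vehicle-well nuclei, with the median taken over replicate plates. Cells from lung cancer lines sat overnight at 37 °C in 1536-well plates, received five √10-spaced library-drug doses by pinning on vehicle-anchored plates, and grew 5 days without medium change before one-step fixation, permeabilisation and Hoechst staining, 4× imaging and MetaXpress nuclear counts. Only plates with control CV under 25% and at least one doubling were kept.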

Cell Line | relative viability
NCI-H522 | 1.04
NCI-H1623 | 0.907
NCI-H838 | 1.03
NCI-H1650 | 0.903
EBC-1 | 1.06
NCI-H1703 | 1.03
NCI-H1993 | 1.1
NCI-H2087 | 1.11
PC-14 | 1.08
LCLC-103H | 1.15
NCI-H596 | 1.03
NCI-H2228 | 1.1
EMC-BAC-2 | 0.959
NCI-H2342 | 1.03
ChaGo-K-1 | 1.06
SW 900 | 0.809
NCI-H1648 | 1.01
NCI-H441 | 1.03

same assay, conditions: 0.1 µM

Cell Line | relative viability
NCI-H522 | 0.811
NCI-H1623 | 0.687
NCI-H838 | 0.719
NCI-H1650 | 0.739
EBC-1 | 0.714
NCI-H1703 | 0.75
NCI-H1993 | 0.636
NCI-H2087 | 0.978
PC-14 | 0.933
LCLC-103H | 0.879
NCI-H596 | 0.685
NCI-H2228 | 0.7
EMC-BAC-2 | 0.453
NCI-H2342 | 0.533
ChaGo-K-1 | 0.858
SW 900 | 0.729
NCI-H1648 | 0.783
NCI-H441 | 0.751

same assay, conditions: 0.3162 µM

Cell Line | relative viability
NCI-H522 | 0.928
NCI-H1623 | 0.818
NCI-H838 | 0.773
NCI-H1650 | 0.38
EBC-1 | 0.872
NCI-H1703 | 0.711
NCI-H1993 | 0.783
NCI-H2087 | 0.78
PC-14 | 0.782
LCLC-103H | 0.942
NCI-H596 | 0.877
NCI-H2228 | 0.582
EMC-BAC-2 | 0.278
NCI-H2342 | 0.38
ChaGo-K-1 | 0.481
SW 900 | 0.524
NCI-H1648 | 0.674
NCI-H441 | 0.308

same assay, conditions: 1 µM

Cell Line | relative viability
NCI-H522 | 0.743
NCI-H1623 | 0.303
NCI-H838 | 0.351
NCI-H1650 | 0.161
EBC-1 | 0.562
NCI-H1703 | 0.371
NCI-H1993 | 0.501
NCI-H2087 | 0.259
PC-14 | 0.441
LCLC-103H | 0.864
NCI-H596 | 0.734
NCI-H2228 | 0.195
EMC-BAC-2 | 0.234
NCI-H2342 | 0.34
ChaGo-K-1 | 0.308
SW 900 | 0.224
NCI-H1648 | 0.516
NCI-H441 | 0.172
